Here are results for 14 compounds from US12448394B2, “Heterocyclic pyrazole derivatives as type III receptor tyrosine kinase inhibitors” (DEVELOPMENT CENTER FOR BIOTECHNOLOGY, priority 2019, dated 2025).

Where only a bound is given, the exact number is not on record here.

One assay concerns the target T1, MET kinase (Homo sapiens, UniProt P08581).
T1 construct: purchased SignalChem
The assay can be described thus: MET kinase assay (AlphaScreen, counter screen). Type of assay: biochemical. Particulars: read-out: Ranking of IC50 values, MET. The method, boiled down: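 Recombinant MET kinase (1 ng) phosphorylated biotinylated poly(Glu4:Tyr1) with […] ATP (so in the source) in MOPS pH 7.0 buffer with 10 mM MgCl2, 45 min at 30 °C, stopped with EDTA. Product read by AlphaScreen; IC50 from serial dilutions run in duplicate.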
(In general: Bead proximity is the source of the signal in Alpha formats.)

The subject of assay [1] is phosphorylation of FLT3 and its down-stream effector STAT5. The assay can be described thus: Western blotting of p-FLT3 and p-STAT5 in MV4-11 cells. Particulars: Homo sapiens; at 30 nM treatment, 3 hours, FLT3-ITD positive MV4-11 leukemia cells; read-out: inhibition activity against phosphorylation of FLT3 and its down-stream effector STAT5. Type of assay: cell-based. The method, boiled down: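 MV4-11 cells held overnight in IMDM with 0.1% FBS, then 3 million cells treated with compound for 3 h. Whole lysates immunoblotted for p-FLT3 (Tyr-591), p-STAT5 (Tyr-694) and actin. Band intensities at 30 nM compared to DMSO control; % inhibition = (1 − relative intensity) × 100.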
(In general: A western blot detects proteins with antibodies after separation by electrophoresis.)

T1 sequence (P08581 25-1390): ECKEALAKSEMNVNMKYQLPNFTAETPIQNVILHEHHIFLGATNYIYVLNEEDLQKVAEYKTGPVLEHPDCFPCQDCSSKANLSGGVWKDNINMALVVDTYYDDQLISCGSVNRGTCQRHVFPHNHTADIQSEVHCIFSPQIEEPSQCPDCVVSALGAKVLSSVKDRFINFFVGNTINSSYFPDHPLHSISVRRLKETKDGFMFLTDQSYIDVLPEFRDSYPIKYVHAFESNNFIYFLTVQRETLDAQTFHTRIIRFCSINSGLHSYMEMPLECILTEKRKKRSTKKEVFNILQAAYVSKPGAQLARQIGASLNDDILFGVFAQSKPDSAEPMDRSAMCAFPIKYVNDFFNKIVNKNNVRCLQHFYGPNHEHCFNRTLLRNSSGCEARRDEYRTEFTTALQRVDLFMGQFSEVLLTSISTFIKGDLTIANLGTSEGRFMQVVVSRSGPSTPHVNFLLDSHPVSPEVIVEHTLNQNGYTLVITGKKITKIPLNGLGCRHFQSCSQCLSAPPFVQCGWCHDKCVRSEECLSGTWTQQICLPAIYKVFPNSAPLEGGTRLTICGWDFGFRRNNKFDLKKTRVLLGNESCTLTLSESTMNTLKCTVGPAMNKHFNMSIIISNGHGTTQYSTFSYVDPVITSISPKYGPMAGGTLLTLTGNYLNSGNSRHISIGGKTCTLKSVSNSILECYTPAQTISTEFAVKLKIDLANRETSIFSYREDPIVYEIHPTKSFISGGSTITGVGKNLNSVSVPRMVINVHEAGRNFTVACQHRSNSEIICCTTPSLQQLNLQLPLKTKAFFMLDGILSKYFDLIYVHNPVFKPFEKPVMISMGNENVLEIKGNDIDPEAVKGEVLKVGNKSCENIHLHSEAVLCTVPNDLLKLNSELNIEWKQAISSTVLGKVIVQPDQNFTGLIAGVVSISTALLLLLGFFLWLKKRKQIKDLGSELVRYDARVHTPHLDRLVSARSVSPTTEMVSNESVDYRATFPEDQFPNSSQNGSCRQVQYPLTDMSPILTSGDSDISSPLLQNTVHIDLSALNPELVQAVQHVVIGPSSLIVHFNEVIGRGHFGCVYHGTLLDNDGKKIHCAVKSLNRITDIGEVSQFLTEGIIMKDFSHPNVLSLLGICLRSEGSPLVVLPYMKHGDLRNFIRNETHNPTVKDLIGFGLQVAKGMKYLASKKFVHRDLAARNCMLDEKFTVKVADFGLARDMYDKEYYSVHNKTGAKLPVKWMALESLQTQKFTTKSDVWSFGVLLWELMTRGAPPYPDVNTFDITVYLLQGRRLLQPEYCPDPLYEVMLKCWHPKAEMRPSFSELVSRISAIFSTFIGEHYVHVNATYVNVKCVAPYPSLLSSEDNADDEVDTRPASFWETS

For the compound `COc1cc(-c2cc3c(s2)Cc2c(-c4ccc5cnn(C)c5c4)n[nH]c2-3)ccc1C(=O)N1CCOCC1` [Compound 43, (2-methoxy-4-(3-(1-methyl-1H-indazol-6-yl)-1,4-dihydrothieno [2′,3′:4,5]cyclopenta [1,2-c]pyrazol-6-yl)phenyl)(morpholino) methanone], the IC50 at MET kinase was more than 1 µM. Moreover, the inhibition at 0.03 µM in assay [1] was more than 50%.
`Cn1ncc2ccc(-c3n[nH]c4c3Cc3sc(-c5ccc(CN6CCCCC6=O)cc5)cc3-4)cc21` [Compound 61, 1-(4-(3-(l-methyl-1H-indazol-6-yl)-1,4-dihydro-thieno[2′,3′:4,5]cyclopenta [1,2-c]pyrazol-6-yl)benzyl)piperidin-2-one]: at MET kinase, the IC50 was more than 1 µM. Further, the inhibition at 0.03 µM in assay [1] was more than 50%.
The like results for `Cn1ncc2ccc(-c3n[nH]c4c3Cc3sc(-c5ccc(CN6CCCC6=O)cc5)cc3-4)cc21` [Compound 64, 1-(4-(3-(1-methyl-1H-indazol-6-yl)-1,4-dihydro-thieno[2′,3′:4,5]cyclopenta [1,2-c]pyrazol-6-yl)benzyl)pyrrolidin-2-one] were, in that order, more than 1 µM and more than 50%.
The like results for `Cn1ncc2ccc(-c3n[nH]c4c3Cc3sc(-c5ccc(C(=O)N6CCOCC6)c(F)c5)cc3-4)cc21` [Compound 44, (2-fluoro-4-(3-(1-methyl-1H-indazol-6-yl)-1,4-dihydrothieno[2′,3′:4,5]cyclopenta[1,2-c]pyrazol-6-yl)phenyl)(morpholino) methanone] were, in that order, more than 1 µM and more than 50%.
The corresponding values for `c1cc(CN2CCOCC2)ncc1-c1cc2c(s1)Cc1c(-c3ccc4cn[nH]c4c3)n[nH]c1-2` [Compound 18, 4-((5-(3-(1H-indazol-6-yl)-1,4-dihydrothieno[2′,3′:4,5]cyclopenta[1,2-c]pyrazol-6-yl)pyridin-2-yl)methyl) morpholine] are more than 1 µM and more than 50%.
On to `Cn1ncc2ccc(-c3n[nH]c4c3Cc3sc(-c5ccc(CN6CC7(COC7)C6)cc5)cc3-4)cc21` [Compound 102, 6-(4-(3-(1-methyl-1H-indazol-6-yl)-1,4-dihydro-thieno[2′,3′:4,5]cyclopenta [1,2-c]pyrazol-6-yl)benzyl)-2-oxa-6-azaspiro [3.3]heptane], for which the IC50 at MET kinase lay within 0.3 to 1 µM. Besides, the inhibition at 0.03 µM in assay [1] is more than 50%.
The corresponding values for `Cn1ncc2ccc(-c3n[nH]c4c3Cc3sc(-c5ccc(CN6CCOCC6)cc5F)cc3-4)cc21` [Compound 32, 4-(3-fluoro-4-(3-(1-methyl-1H-indazol-6-yl)-1,4-dihydrothieno [2′,3′:4,5]cyclopenta [1,2-c]pyrazol-6-yl)benzyl)morpholine] are more than 1 µM and more than 50%.
For the compound `COC1CN(Cc2ccc(-c3cc4c(s3)Cc3c(-c5ccc6cnn(C)c6c5)n[nH]c3-4)cc2)C1` [Compound 105, 6-(4-((3-methoxyazeti-din-1-yl)methyl)phenyl)-3-(1-methyl-1H-indazol-6-yl)-1,4-dihydrothieno [2′,3′:4,5]cyclopenta [1,2-c]pyrazole], on MET kinase, the IC50 lay in the range of 0.3 to 1 µM. Moreover, in assay [1], the inhibition at 0.03 µM was more than 50%.
The corresponding values for `Cn1ncc2ccc(-c3n[nH]c4c3Cc3sc(-c5csc(C(=O)N6CCOCC6)n5)cc3-4)cc21` [Compound 60, (4-(3-(1-methyl-1H-indazol-6-yl)-1,4-dihydro-thieno[2′,3′:4,5]cyclopenta [1,2-c]pyrazol-6-yl)thiazol-2-yl)(morpholino) methanone] are more than 1 µM and more than 50%.
The corresponding values for `Cn1ncc2ccc(-c3n[nH]c4c3Cc3sc(-c5ccc(CN6CCOCC6=O)cc5)cc3-4)cc21` [Compound 59, 4-(4-(3-(1-methyl-1H-indazol-6-yl)-1,4-dihydro-thieno[2′,3′:4,5]cyclopenta [1,2-c]pyrazol-6-yl)benzyl)morpholin-3-one] are more than 1 µM and more than 50%.
The corresponding values for `Cn1ncc2ccc(-c3n[nH]c4c3Cc3sc(-c5ccc(CN6CCOCC6)s5)cc3-4)cc21` [Compound 51, 4-((5-(3-(1-methyl-1H-indazol-6-yl)-1,4-dihydro-thieno[2′,3′:4,5]cyclopenta [1,2-c]pyrazol-6-yl)thiophen-2-yl)methyl) morpholine] are more than 1 µM and more than 50%.
As for `Cn1ncc2ccc(-c3n[nH]c4c3Cc3sc(-c5ccc(CN6CCSCC6)cc5)cc3-4)cc21` [Compound 39, 3-(1-methyl-1H-indazol-6-yl)-6-(4-(thiomorpho-linomethyl)phenyl)-1,4-dihydrothieno[2′,3′:4,5] cyclopenta[1,2-c]pyrazole], the IC50 on MET kinase was more than 1 µM. For the same compound, the inhibition at 0.03 µM in assay [1] is more than 50%.
Take `Cn1ncc2ccc(-c3n[nH]c4c3Cc3sc(-c5ccc(C(=O)N6CCOCC6)nc5)cc3-4)cc21` [Compound 23, (5-(3-(1-methyl-1H-indazol-6-yl)-1,4-dihydro-thieno[2′,3′:4,5]cyclopenta [1,2-c]pyrazol-6-yl)pyridin-2-yl)(morpholino) methanone]: the IC50 on MET kinase was more than 1 µM. In assay [1], the inhibition at 0.03 µM is more than 50%.
The like results for `Cn1ncc2ccc(-c3n[nH]c4c3Cc3sc(-c5ccc(CN6CCC6)cc5)cc3-4)cc21` [Compound 103, 6-(4-(azetidin-1-ylmethyl)phenyl)-3-(1-methyl-1H-indazol-6-yl)-1,4-dihydro-thieno[2′,3′:4,5]cyclopenta [1,2-c]pyrazole] were, in that order, 0.3 to 1 µM and more than 50%.

In general, IC50 refers to the concentration at which inhibition is half-maximal. By inhibition is commonly meant how much of the control response was suppressed.
